Test system: MDA-MB-453 cells
Assay: MDA-MB-453 Cell Growth Inhibition Test (SRB Assay)
Type: cell-based
Conditions: Homo sapiens, 72 h incubation
Description: MDA-MB-453 Cell Growth Inhibition Test (SRB Assay)
Cell strains: MDA-MB-453 (human breast cancer cell strains);
SRB: 0.4% (w/v) working solution was formulated with 1% glacial acetic acid, reserved at 4° C.; antitumor compounds; DMSO
Culture medium: 90% L15+10% FBS;
1. A plate (10 cm) of cells in logarithmic growth phase normally cultured was collected;
2. The culture solution was sucked out. The plate was washed with 5 mL of PBS 1-2 times;
3. 1.5 mL of 0.25% pancreatin was added to the plate to infiltrate the cells;
4. The pancreatin was sucked out. The culture plate was placed in an incubator. Digestion was carried out for about 3 min at 37° C.;
5. 4 mL of complete culture solution was added to the culture plate to stop the digestion. The cells were carefully scoured with micropipette (1 ml) to give a uniform single cell suspension. The suspension was implanted into a 96-well cell culture plate by 7000 cells/100 μl per well. The culture plate was incubated overnight under 5% CO2 at 37° C. In day 2, 100 μl of culture solution comprising a compound was added in each well, and further incubated for 72 h under 5% CO2 at 37° C.;
6. The culture solution was sucked out. 100 uL of TCA fixed cells which were diluted to 10% were added to each well. The plate was kept in a refrigerator for 1 h at 4° C.
7. TCA stationary liquid was sucked out. […]
13. OD values were determined at […]. […]

IC50: 505 nM
SMILES: C#Cc1cccc(Nc2c(C#N)cnc3cc(OC4CCOC4)c(NC(=O)/C=C/CN(C)C)cc23)c1 (stereo not shown) [Example 5, (E)-N-(3-CYANO-4-(3-ETHYNYLPHENYLAMINO)-7-(TETRAHYDROFURAN-3-YL-OXY)QUINOLIN-6-YL)-4-(DIMETHYLAMINO)-BUT-2-ENAMIDE]

— patent US9187458B2, “Cyanoquinoline derivatives” (Tianjin Hemay Bio-Tech Co., LTD., priority 2010, dated 2015)
